For data set [1] the following is noted: cited from earlier work.
Data set [2] in a line: Resazurin-based cell viability assay. More on the design: species or system mouse. Particulars: mouse, mature 3T3-L1 adipocytes; 250 μM (of each compound), 24-hour treatment, 1 μM dexamethasone stimulation; read-out: reduction of cell viability (number of mature adipocytes). As to the method:
(§1) The cell viability of mature adipocytes after treatment with a test compound was measured by means of a fluorimetric Resazurin-based assay. Vital, that is to say metabolically active, cells are capable of converting Resazurin into the fluorescent derivative Resorufin (Strotmann U. J. et al., Ecotox. Environ. Safety 1993, 25, 79-89). 3T3-L1 cells were seeded into 96-well plates (5,000-10,000 cells/well) and, as described above, cultivated to maturity (D8). […] Cells treated as follows served as controls: (1) pure cell culture medium (undifferentiated control), (2) pure differentiation medium (untreated control), (3) DMSO, corresponding to the highest DMSO concentration in the test batches, in differentiation medium (DMSO control), and (4) 150 μg/ml digitonin in DMEM (cell death control). After 24 hours, the incubation medium was discarded and the cells were washed with 100 μl/well of DMEM and then incubated for 2 hours under standard culture conditions with 50 μl/well of Resazurin solution (60 μM in DMEM). Finally, the Resorufin fluorescence was detected by means of a Synergy 2 plate reader (BioTek, Winooski, USA) (excitation: 540 nm, emission: 590 nm, mirror: 550 nm). […] Finally, the cell viability, as a measure of the number and fitness of the cells, was measured by means of a Resazurin assay.
A general note: The colour change of resazurin is a common sign of viable cells or microbes.

The test system of another data set is 3T3 pre-adipocytes. As to the kind of experiment: Fluorescence microscopy of lipid droplets (Nile red/DAPI). The class given is cell-based, mouse. To be noted: 100 μM, D0-D6, stimulation with 1 μM dexamethasone. The method, then: […] The incubation medium was then discarded and the cells were washed with PBS and stained with Nile red (10 μg/ml) and DAPI (1 μg/ml) in 50 μl/well of PBS for 20 minutes at room temperature. After removal of the staining solution, the cells were washed with PBS and fixed with 4% paraformaldehyde in PBS for 30 minutes at room temperature. Finally, the cells were washed three times with PBS and mounted on the object slide by means of Fluorescence Mounting Medium (Dako, Carpinteria, USA). The fluorescence microscopy images were taken by using a Zeiss Axio Observer.Z1 with ApoTome (Carl Zeiss Microlmaging, Jena, Germany) using the DAPI and GFP filter settings.

The next data set relates to 3T3-L1 mouse fibroblasts. As to the kind of experiment: Nile red assay of cellular lipid content during adipogenesis. The data set is classed as cell-based. Particulars: for Lipid content: treatment D0-D2, read on D6, stimulated untreated cells = 100%, unstimulated = 0%; for IC50: Mus musculus, 3T3-L1, 144 h, treatment for the entire 6-day adipocyte differentiation (D0-D6), read-out: IC50 value for the inhibition of cellular lipid accumulation. The method, then:
The 3T3-L1 mouse fibroblasts were cultivated in Dulbecco's modified Eagle's medium (DMEM) incl. 10% foetal calf serum (FCS) and 2 mM L-glutamine at 37° C., 95% humidity and 5% CO2.
Adipocyte differentiation and maturation was induced as described (Yang J. Y. et al., Obesity 2008, 16, 16-22; Shugart E. C. and Umek R. M., Cell Growth & Differentiation 1997, 8, 1091-1098). The cells were stimulated not only with dexamethasone, as is generally conventional, but also with cortisol, which is more physiological.
The cells were seeded into 96-well plates and cultivated to confluence. Two days after reaching cell confluence (D0=day 0), cell differentiation was induced by adding DMEM with 10% FCS, 167 nM insulin, […] and 1 μM dexamethasone or 200 nM cortisol for two days (D2). The cells were then cultivated for a further two days in DMEM with 10% FCS and 167 nM insulin (D4), followed by cultivation in DMEM/10% FCS for a further four days (D8). Ultimately, >20-30% of the cells were mature adipocytes with accumulated lipid stores.
As an indicator for the degree of adipogenesis, the lipid content of the cells (intracellular lipid droplets) was detected by means of the lipophilic colour reagent Nile red, as described (Yang J. Y. et al., Obesity 2008, 16, 16-22; Greenspan P., The Journal of Cell Biology 1985, 100, 965-973). 3T3-L1 cells (5,000-10,000 cells/well), after reaching confluence, were cultivated for a further two days in 96-well plates (D0). The cells were then treated with guggulsterone and/or glycyrrhetinic acid, individually or in combination, for days D0-D2, D2-D4, D4-D6 and D0-D6 of the adipogenesis (concentration range: 1-200 μM). The medium, with or without test substance(s), was changed or renewed every two days. Cells treated as follows served as controls: (1) pure cell culture medium (undifferentiated control), (2) pure differentiation medium (untreated control), and (3) DMSO, corresponding to the highest DMSO concentration in the test batches, in differentiation medium (DMSO control).
On day 6 (D6), the intracellular lipid accumulation (lipid droplets) was quantified by means of a Nile red assay. To that end, the cell medium was discarded and the cells were washed with 100 μl/well of PBS (pH 7.4). The cells were then incubated for 20 minutes at room temperature with 50 μl/well of Nile red in PBS (10 μg/ml). The lipid content was determined fluorometrically using a Synergy 2 plate reader (BioTek, Winooski, USA) (excitation: 485 nm, emission: 560 nm, mirror: 550 nm). Nile red selectively stains neutral lipids, for example triacylglycerides in intracellular droplets.
The lipid content, that is to say the storage of triacylglycerides in intracellular lipid droplets, is an indicator for the degree of adipogenesis. […] Since the staining reagent Nile red, upon excitation at 485 nm and fluorescence detection at 560 nm, is very selective for neutral lipids, it was thus possible specifically to measure the intracellular accumulation of triacylglycerides during advancing adipogenesis.
On day 6 of the adipogenesis (D6), the accumulation of intracellular lipid droplets was measured fluorometrically by means of a Nile red assay (excitation: 485 nm; emission: 560 nm; 550 nm mirror). The data were normalised and the lipid accumulation is given in percent; unstimulated cells were used as 0% reference, and stimulated but untreated cells were used as 100% reference.

In another data set the test system is caspases 3/7. The data set can be described thus: Caspase-Glo 3/7 apoptosis assay in mature adipocytes. The data set is classed as cell-based, mouse. Particulars: 24 hours. As to the method:
In order to evaluate a possible induction of apoptosis in mature adipocytes as a result of the treatment with (Z)-guggulsterone and/or glycyrrhetinic acid, a Caspase-Glo® 3/7 assay kit (Promega, Mannheim, Germany) was used.
3T3-L1 cells were seeded into 96-well plates (5,000-10,000 cells/well) and, as described above, cultivated to maturity (D8). On D8, the mature adipocytes were incubated for 24 hours under standard culture conditions with guggulsterone and/or glycyrrhetinic acid (1-250 μM). Cells treated as follows served as controls: (1) pure cell culture medium (undifferentiated control), (2) pure differentiation medium (untreated control), and (3) DMSO, corresponding to the highest DMSO concentration in the test batches, in differentiation medium (DMSO control). After 24 hours, the incubation medium was discarded, the cells were washed with 100 μl/well of DMEM, and then 150 μl/well of Caspase-Glo® 3/7 reagent in DMEM (1:1, v/v) were added. After incubation for 2 hours at room temperature, the luminescence signal of the reagent was detected by means of a Synergy 2 plate reader (BioTek, Winooski, USA).
The combination of 250 μM of each of the two compounds brought about an increase in caspase 3/7 activity by a factor of 3.5-4.0 as compared with untreated cells (FIG. 2).

The test system of a further data set is mature 3T3 adipocytes. The data set can be described thus: Resazurin-based cell viability assay. Also noted: species or system mouse. To be noted: up to 250 μM, 24-hour treatment, 1 μM dexamethasone stimulation. As to the method:
as §1

As for guggulsterone, the “systemic administration that is not safe” value in data set [1] is given as “more than 30 mg/day”.
In the case of `CC1(C)[C@@H](O)CC[C@]2(C)[C@H]3C(=O)C=C4[C@@H]5C[C@@](C)(C(=O)O)CC[C@]5(C)CC[C@@]4(C)[C@]3(C)CC[C@@H]12` [18β-glycyrrhetinic acid], in data set [2], the cytotoxicity at 24 h, 250 μM came out at 28%. In addition, in the data set on 3T3 pre-adipocytes, the “lipid droplets versus stimulated untreated cells” value is “significantly fewer and smaller lipid droplets”. For the same compound, the Lipid content in the data set with 3T3-L1 mouse fibroblasts (10 μM) was 98%; in the data set on 3T3-L1 mouse fibroblasts (40 μM), 91%; with 3T3-L1 mouse fibroblasts (100 μM), 7%. Also, the half-maximal inhibitory concentration (IC50) in the data set with 3T3-L1 mouse fibroblasts was about 20 µM. Moreover, the “increase in caspase 3/7 activity as compared with untreated cells” value in the data set on caspases 3/7 (250 μM (of each compound)) is recorded as 2.5-3.0 factor.
With `C/C=C1\C(=O)C[C@H]2[C@@H]3CCC4=CC(=O)CC[C@]4(C)[C@H]3CC[C@]12C` [(Z)-guggulsterone], in the data set with mature 3T3 adipocytes, the “effect on cell viability” value was “did not impair the cell viability”. In addition, the “lipid droplets versus stimulated untreated cells” value in the data set with 3T3 pre-adipocytes is “significantly fewer and smaller lipid droplets”. The Lipid content with 3T3-L1 mouse fibroblasts (10 μM) is given as 71%; in the data set on 3T3-L1 mouse fibroblasts (40 μM), 26%; with 3T3-L1 mouse fibroblasts (100 μM), 5%. In the data set with 3T3-L1 mouse fibroblasts, the IC50 was about 5 µM. Besides, in the data set with caspases 3/7 (dexamethasone or cortisol stimulation), the “induction of caspases 3/7” value is “no induction of caspases 3/7”.

As a reminder, the IC50 is the midpoint of a concentration-inhibition curve.
